The source made the active and inactive calls. The rule behind the calls is not given here.
Experiments:
[1] = target: Serine/threonine-protein kinase Nek9 (Homo sapiens) (UniProt Q8TD19); experiment: activity of NEK9(h) at 1.0 µM in the Eurofins Kinase panel; conditions: Compound concentration 1.0 uM
[2] = target: Tribbles homolog 2 (Homo sapiens) (UniProt Q92519); experiment: activity of TRB2(h) at 1.0 µM in the Eurofins Kinase panel; conditions: Compound concentration 1.0 uM
[3] = target: Serine/threonine-protein kinase ICK (Homo sapiens) (UniProt Q9UPZ9); experiment: activity of ICK(h) at 1.0 µM in the Eurofins Kinase panel; conditions: Compound concentration 1.0 uM
[4] = target: Ephrin type-A receptor 8 (Homo sapiens) (UniProt P29322); experiment: activity of EphA8(h) at 1.0 µM in the Eurofins Kinase panel; conditions: Compound concentration 1.0 uM
[5] = target: Serine/threonine-protein kinase TAO1 (Homo sapiens) (UniProt Q7L7X3); experiment: activity of TAO1(h) at 1.0 µM in the Eurofins Kinase panel; conditions: Compound concentration 1.0 uM
[6] = target: Discoidin domain-containing receptor 2 (Homo sapiens) (UniProt Q16832); experiment: activity of DDR2(h) at 1.0 µM in the Eurofins Kinase panel; conditions: Compound concentration 1.0 uM
[7] = target: Inhibitor of nuclear factor kappa-B kinase subunit beta (Homo sapiens) (UniProt O14920); experiment: activity of IKKbeta(h) at 1.0 µM in the Eurofins Kinase panel; conditions: Compound concentration 1.0 uM
[8] = target: Mitogen-activated protein kinase kinase kinase 7 (Homo sapiens) (UniProt O43318); experiment: activity of TAK1(h) at 1.0 µM in the Eurofins Kinase panel; conditions: Compound concentration 1.0 uM
[9] = target: Tyrosine-protein kinase CSK (Homo sapiens) (UniProt P41240); experiment: activity of CSK(h) at 1.0 µM in the Eurofins Kinase panel; conditions: Compound concentration 1.0 uM
[10] = target: Interferon-induced, double-stranded RNA-activated protein kinase (Homo sapiens) (UniProt P19525); experiment: activity of PKR(h) at 1.0 µM in the Eurofins Kinase panel; conditions: Compound concentration 1.0 uM
[11] = target: Tyrosine-protein kinase TXK (Homo sapiens) (UniProt P42681); experiment: activity of Txk(h) at 1.0 µM in the Eurofins Kinase panel; conditions: Compound concentration 1.0 uM
[12] = target: Tyrosine-protein kinase ABL2 (Homo sapiens) (UniProt P42684); experiment: activity of Arg(h) at 1.0 µM in the Eurofins Kinase panel; conditions: Compound concentration 1.0 uM
[13] = target: Citron Rho-interacting kinase (Homo sapiens, UniProt O14578); experiment: NanoLuc NanoBRET (CIT); conditions: read-out: Kd
[14] = target: Homeodomain-interacting protein kinase 3 (Homo sapiens) (UniProt Q9H422); experiment: activity of HIPK3(h) at 1.0 µM in the Eurofins Kinase panel; conditions: Compound concentration 1.0 uM
[15] = target: Serine/threonine-protein kinase PAK 6 (Homo sapiens) (UniProt Q9NQU5); experiment: activity of PAK6(h) at 1.0 µM in the Eurofins Kinase panel; conditions: Compound concentration 1.0 uM
[16] = target: Tau-tubulin kinase 1 (Homo sapiens) (UniProt Q5TCY1); experiment: activity of TTBK1(h) at 1.0 µM in the Eurofins Kinase panel; conditions: Compound concentration 1.0 uM
[17] = target: Bone morphogenetic protein receptor type-2 (Homo sapiens) (UniProt Q13873); experiment: activity of BMPR2(h) at 1.0 µM in the Eurofins Kinase panel; conditions: Compound concentration 1.0 uM
[18] = target: Mitogen-activated protein kinase 14 (Homo sapiens) (UniProt Q16539); experiment: activity of SAPK2a(h) at 1.0 µM in the Eurofins Kinase panel; conditions: Compound concentration 1.0 uM
[19] = target: Protein-tyrosine kinase 6 (Homo sapiens) (UniProt Q13882); experiment: activity of BRK(h) at 1.0 µM in the Eurofins Kinase panel; conditions: Compound concentration 1.0 uM
[20] = target: Inhibitor of nuclear factor kappa-B kinase subunit alpha (Homo sapiens) (UniProt O15111); experiment: activity of IKKalpha(h) at 1.0 µM in the Eurofins Kinase panel; conditions: Compound concentration 1.0 uM
[21] = target: Receptor-interacting serine/threonine-protein kinase 2 (Homo sapiens) (UniProt O43353); experiment: activity of RIPK2(h) at 1.0 µM in the Eurofins Kinase panel; conditions: Compound concentration 1.0 uM
[22] = target: Serine/threonine-protein kinase 17A (Homo sapiens) (UniProt Q9UEE5); experiment: activity of DRAK1(h) at 1.0 µM in the Eurofins Kinase panel; conditions: Compound concentration 1.0 uM
[23] = target: Leucine-rich repeat serine/threonine-protein kinase 2 (Homo sapiens) (UniProt Q5S007); experiment: activity of LRRK2(h) at 1.0 µM in the Eurofins Kinase panel; conditions: Compound concentration 1.0 uM
[24] = target: Transient receptor potential cation channel subfamily M member 7 (Homo sapiens) (UniProt Q96QT4); experiment: activity of ChaK1(h) at 1.0 µM in the Eurofins Kinase panel; conditions: Compound concentration 1.0 uM
[25] = target: Receptor-interacting serine/threonine-protein kinase 1 (Homo sapiens) (UniProt Q13546); experiment: activity of RIPK1(h) at 1.0 µM in the Eurofins Kinase panel; conditions: Compound concentration 1.0 uM
[26] = target: Serine/threonine-protein kinase PAK 5 (Homo sapiens) (UniProt Q9P286); experiment: activity of PAK5(h) at 1.0 µM in the Eurofins Kinase panel; conditions: Compound concentration 1.0 uM
[27] = target: Beta-adrenergic receptor kinase 1 (Homo sapiens) (UniProt P25098); experiment: activity of GRK2(h) at 1.0 µM in the Eurofins Kinase panel; conditions: Compound concentration 1.0 uM
[28] = target: Proto-oncogene tyrosine-protein kinase ROS (Homo sapiens) (UniProt P08922); experiment: activity of Ros(h) at 1.0 µM in the Eurofins Kinase panel; conditions: Compound concentration 1.0 uM
[29] = target: Protein kinase C gamma type (Homo sapiens) (UniProt P05129); experiment: activity of PKCgamma(h) at 1.0 µM in the Eurofins Kinase panel; conditions: Compound concentration 1.0 uM
[30] = target: Glycogen synthase kinase-3 alpha (Homo sapiens) (UniProt P49840); experiment: activity of GSK3alpha(h) at 1.0 µM in the Eurofins Kinase panel; conditions: Compound concentration 1.0 uM
[31] = target: cGMP-dependent protein kinase 1 (Homo sapiens) (UniProt Q13976); experiment: activity of PKG1beta(h) at 1.0 µM in the Eurofins Kinase panel; conditions: Compound concentration 1.0 uM
[32] = target: Cyclin-dependent kinase 1/cyclin B (Homo sapiens) (UniProt P06493+P14635+Q8WWL7+O95067); experiment: activity of CDK1/cyclinB(h) at 1.0 µM in the Eurofins Kinase panel; assay type: protein-complex assay; conditions: Compound concentration 1.0 uM
[33] = target: Dual specificity mitogen-activated protein kinase kinase 3 (Homo sapiens) (UniProt P46734); experiment: activity of MKK3(h) at 1.0 µM in the Eurofins Kinase panel; conditions: Compound concentration 1.0 uM
[34] = target: Mitogen-activated protein kinase kinase kinase 2 (Homo sapiens) (UniProt Q9Y2U5); experiment: activity of MEKK2(h) at 1.0 µM in the Eurofins Kinase panel; conditions: Compound concentration 1.0 uM
[35] = target: Serine/threonine-protein kinase Sgk2 (Homo sapiens) (UniProt Q9HBY8); experiment: activity of SGK2(h) at 1.0 µM in the Eurofins Kinase panel; conditions: Compound concentration 1.0 uM
[36] = target: Cyclin-dependent kinase-like 3 (Homo sapiens) (UniProt Q8IVW4); experiment: activity of CDKL3(h) at 1.0 µM in the Eurofins Kinase panel; conditions: Compound concentration 1.0 uM
[37] = target: TGF-beta receptor type-2 (Homo sapiens) (UniProt P37173); experiment: activity of TGFBR2(h) at 1.0 µM in the Eurofins Kinase panel; conditions: Compound concentration 1.0 uM
[38] = target: Casein kinase I isoform gamma-1 (Homo sapiens) (UniProt Q9HCP0); experiment: activity of CK1gamma1(h) at 1.0 µM in the Eurofins Kinase panel; conditions: Compound concentration 1.0 uM
[39] = target: Dual specificity protein kinase CLK4 (Homo sapiens) (UniProt Q9HAZ1); experiment: activity of CLK4(h) at 1.0 µM in the Eurofins Kinase panel; conditions: Compound concentration 1.0 uM
Chain of Dual specificity protein kinase CLK4 (Homo sapiens) (Q9HAZ1 whole entry, looked up): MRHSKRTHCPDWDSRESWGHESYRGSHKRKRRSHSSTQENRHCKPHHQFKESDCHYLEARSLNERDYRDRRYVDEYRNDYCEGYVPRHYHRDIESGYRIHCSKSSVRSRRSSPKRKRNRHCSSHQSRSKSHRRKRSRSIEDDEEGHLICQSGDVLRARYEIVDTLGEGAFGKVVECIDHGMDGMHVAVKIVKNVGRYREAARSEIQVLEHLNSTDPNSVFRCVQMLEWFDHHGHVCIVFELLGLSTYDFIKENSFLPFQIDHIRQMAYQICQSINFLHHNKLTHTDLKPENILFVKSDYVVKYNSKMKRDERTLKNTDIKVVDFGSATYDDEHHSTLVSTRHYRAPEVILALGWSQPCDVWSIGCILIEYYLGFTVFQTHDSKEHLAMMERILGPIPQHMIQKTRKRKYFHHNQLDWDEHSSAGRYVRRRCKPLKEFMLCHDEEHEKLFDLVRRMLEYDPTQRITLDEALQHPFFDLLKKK

Chain of Inhibitor of nuclear factor kappa-B kinase subunit beta (Homo sapiens) (O14920 whole entry): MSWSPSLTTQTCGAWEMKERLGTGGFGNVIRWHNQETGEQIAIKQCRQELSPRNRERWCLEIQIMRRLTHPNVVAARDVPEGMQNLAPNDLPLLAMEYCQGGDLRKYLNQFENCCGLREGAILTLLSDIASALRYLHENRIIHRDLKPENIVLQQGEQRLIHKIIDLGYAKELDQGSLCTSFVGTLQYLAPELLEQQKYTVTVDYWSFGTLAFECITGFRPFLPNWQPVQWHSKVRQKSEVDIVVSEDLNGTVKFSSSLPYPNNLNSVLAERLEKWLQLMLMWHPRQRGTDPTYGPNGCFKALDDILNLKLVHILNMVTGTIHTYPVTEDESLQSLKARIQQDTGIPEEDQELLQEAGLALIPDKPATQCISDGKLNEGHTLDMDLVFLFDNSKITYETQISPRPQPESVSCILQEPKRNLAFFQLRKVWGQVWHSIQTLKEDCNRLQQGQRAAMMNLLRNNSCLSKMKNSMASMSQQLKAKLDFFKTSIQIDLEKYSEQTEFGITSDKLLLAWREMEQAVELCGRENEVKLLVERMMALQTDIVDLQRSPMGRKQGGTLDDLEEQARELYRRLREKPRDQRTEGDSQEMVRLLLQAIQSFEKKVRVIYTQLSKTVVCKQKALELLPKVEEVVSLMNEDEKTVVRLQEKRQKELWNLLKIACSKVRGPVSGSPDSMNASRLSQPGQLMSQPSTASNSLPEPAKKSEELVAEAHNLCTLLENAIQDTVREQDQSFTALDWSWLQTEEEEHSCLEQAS
Chain of Serine/threonine-protein kinase Sgk2 (Homo sapiens) (Q9HBY8 whole entry): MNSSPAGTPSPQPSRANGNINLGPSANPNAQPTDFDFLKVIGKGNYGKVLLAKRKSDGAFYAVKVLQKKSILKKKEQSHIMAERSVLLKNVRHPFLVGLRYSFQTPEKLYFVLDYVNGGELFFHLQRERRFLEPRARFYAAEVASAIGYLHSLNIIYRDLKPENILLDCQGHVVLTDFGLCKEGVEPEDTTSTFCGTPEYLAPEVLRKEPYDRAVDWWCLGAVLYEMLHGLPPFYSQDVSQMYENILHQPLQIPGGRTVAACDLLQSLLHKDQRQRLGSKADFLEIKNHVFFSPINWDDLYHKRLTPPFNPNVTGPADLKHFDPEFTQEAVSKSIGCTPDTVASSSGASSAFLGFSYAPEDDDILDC
Chain of Serine/threonine-protein kinase PAK 5 (Homo sapiens) (Q9P286 whole entry, looked up): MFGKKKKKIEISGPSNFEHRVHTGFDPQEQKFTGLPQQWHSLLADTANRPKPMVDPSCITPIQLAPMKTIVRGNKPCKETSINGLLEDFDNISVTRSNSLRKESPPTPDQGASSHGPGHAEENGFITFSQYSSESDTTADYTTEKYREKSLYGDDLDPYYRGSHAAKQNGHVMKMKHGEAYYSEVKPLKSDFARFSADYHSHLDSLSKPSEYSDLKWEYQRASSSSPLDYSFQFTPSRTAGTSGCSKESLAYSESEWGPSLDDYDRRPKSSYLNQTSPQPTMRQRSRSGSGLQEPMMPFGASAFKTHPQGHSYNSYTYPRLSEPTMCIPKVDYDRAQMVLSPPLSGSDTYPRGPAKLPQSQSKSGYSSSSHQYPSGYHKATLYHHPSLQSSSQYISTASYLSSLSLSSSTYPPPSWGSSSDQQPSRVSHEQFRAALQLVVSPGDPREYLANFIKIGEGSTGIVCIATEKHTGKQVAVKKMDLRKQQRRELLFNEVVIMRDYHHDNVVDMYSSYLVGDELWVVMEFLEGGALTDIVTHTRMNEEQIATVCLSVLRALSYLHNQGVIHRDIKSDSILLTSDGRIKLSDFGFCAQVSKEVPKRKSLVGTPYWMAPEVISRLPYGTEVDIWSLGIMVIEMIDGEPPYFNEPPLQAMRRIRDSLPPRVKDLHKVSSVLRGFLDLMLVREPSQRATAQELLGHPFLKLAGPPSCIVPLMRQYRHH
Chain of Mitogen-activated protein kinase kinase kinase 7 (Homo sapiens) (O43318 whole entry): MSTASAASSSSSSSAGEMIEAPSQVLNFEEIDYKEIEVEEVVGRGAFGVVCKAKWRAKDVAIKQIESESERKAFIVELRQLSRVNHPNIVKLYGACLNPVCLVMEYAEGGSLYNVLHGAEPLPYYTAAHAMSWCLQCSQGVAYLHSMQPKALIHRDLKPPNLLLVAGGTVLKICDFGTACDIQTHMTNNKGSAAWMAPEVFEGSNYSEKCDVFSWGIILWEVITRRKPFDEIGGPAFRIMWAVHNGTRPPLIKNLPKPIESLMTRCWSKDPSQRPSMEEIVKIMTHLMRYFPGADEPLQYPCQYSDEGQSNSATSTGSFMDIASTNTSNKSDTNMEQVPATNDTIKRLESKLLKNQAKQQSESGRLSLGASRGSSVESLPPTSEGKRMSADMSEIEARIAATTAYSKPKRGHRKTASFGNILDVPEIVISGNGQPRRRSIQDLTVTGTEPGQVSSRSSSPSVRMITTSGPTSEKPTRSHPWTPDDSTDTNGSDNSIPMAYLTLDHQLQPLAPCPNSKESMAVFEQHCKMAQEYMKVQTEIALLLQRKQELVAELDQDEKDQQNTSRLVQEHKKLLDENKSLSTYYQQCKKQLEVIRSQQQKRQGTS
Chain of Cyclin-dependent kinase-like 3 (Homo sapiens) (Q8IVW4 whole entry, looked up): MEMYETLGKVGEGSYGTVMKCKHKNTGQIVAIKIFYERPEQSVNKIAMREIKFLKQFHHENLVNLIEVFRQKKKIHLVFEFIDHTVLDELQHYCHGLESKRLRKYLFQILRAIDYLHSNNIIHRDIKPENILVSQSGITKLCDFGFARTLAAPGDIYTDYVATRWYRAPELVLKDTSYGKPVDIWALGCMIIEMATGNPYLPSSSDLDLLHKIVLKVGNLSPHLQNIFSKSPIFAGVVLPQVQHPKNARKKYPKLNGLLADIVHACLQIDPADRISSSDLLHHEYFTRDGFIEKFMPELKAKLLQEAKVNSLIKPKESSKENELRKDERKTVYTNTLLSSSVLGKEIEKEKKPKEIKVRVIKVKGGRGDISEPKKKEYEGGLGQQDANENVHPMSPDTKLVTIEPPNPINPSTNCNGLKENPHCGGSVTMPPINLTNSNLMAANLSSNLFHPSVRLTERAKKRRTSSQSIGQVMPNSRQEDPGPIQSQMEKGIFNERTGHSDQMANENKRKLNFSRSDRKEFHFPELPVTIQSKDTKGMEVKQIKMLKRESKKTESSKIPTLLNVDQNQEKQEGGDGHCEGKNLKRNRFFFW
Chain of cGMP-dependent protein kinase 1 (Homo sapiens) (Q13976 whole entry): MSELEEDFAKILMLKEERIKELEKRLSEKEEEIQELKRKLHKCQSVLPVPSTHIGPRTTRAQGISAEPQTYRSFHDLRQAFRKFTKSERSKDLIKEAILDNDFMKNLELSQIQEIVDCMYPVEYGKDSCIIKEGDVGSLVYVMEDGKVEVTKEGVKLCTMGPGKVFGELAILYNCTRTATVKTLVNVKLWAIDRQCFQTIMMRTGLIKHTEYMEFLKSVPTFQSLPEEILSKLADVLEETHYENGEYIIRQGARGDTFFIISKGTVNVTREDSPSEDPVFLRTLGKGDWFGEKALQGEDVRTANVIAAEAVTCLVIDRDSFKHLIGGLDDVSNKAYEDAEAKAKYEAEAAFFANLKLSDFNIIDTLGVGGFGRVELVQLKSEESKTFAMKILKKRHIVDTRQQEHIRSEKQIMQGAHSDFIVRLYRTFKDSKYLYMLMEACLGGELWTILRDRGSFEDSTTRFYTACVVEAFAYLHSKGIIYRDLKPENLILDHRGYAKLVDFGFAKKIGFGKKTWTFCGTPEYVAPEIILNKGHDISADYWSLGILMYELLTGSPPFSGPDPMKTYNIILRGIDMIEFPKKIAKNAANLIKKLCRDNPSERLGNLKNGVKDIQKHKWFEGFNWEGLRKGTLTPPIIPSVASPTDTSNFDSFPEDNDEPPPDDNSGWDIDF
Chain of Interferon-induced, double-stranded RNA-activated protein kinase (Homo sapiens) (P19525 whole entry): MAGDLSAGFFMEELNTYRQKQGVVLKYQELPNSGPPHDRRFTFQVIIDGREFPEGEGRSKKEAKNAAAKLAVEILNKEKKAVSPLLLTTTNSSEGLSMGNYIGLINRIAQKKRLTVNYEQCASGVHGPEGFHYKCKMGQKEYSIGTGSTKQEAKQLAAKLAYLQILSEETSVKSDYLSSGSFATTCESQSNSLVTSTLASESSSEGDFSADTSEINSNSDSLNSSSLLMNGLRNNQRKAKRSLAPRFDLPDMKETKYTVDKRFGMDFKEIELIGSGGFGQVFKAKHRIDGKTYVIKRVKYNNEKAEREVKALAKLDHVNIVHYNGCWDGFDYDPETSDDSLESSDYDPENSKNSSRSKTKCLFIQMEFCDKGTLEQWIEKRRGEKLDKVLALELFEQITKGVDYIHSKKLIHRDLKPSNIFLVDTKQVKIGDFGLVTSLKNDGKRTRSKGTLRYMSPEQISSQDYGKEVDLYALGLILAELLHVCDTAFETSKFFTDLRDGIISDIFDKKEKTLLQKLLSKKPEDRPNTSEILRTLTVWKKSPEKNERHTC

Cc1cc2c(-c3ccc(NC(=O)[C@H](N)CC(C)(C)C)cc3C)ccnc2[nH]1
activity [1]: 79% | activity [2]: 104% | activity [3]: 99% | activity [4]: 115% | activity [5]: 83% | activity [6]: 85% | activity [7]: 99% | activity [8]: 91% | activity [9]: 92% | activity [10]: 85% | activity [11]: 110% | activity [12]: 72% | Kd [13]: 9.5 nM (active) | activity [14]: 85% | activity [15]: 101% | activity [16]: 96% | activity [17]: 85% | activity [18]: 94% | activity [19]: 83% | activity [20]: 98% | activity [21]: 97% | activity [22]: 80% | activity [23]: 100% | activity [24]: 106% | activity [25]: 84% | activity [26]: 87% | activity [27]: 95% | activity [28]: 97% | activity [29]: 97% | activity [30]: 87% | activity [31]: 92% | activity [32]: 94% | activity [33]: 97% | activity [34]: 122% | activity [35]: 82% | activity [36]: 79% | activity [37]: 96% | activity [38]: 101% | activity [39]: 85%

— ChEMBL document CHEMBL5723584 (2023)
